According to the NIST ThermoML archive (doi:10.1021/acs.jced.7b01006):

Assay: xn = mol fraction of the nth substance listed
Conditions: 100 kPa, Liquid; for electrical conductivity: Alternating current cell with electrodes; for viscosity: Falling or rolling sphere viscometry; for mass density: Vibrating tube method

CCC[n+]1ccn(C)c1C.N#C[S-] [1,2-dimethyl-3-propylimidazolium thiocyanate] + CC#N
Conditions	electrical conductivity [S/m]	mass density [kg/m3]	viscosity [mPa·s]
288.15 K, x1 = 0.1002	5.17	884.48	7.694
288.15 K, x1 = 0.2002	4.31	948.75	16.21
288.15 K, x1 = 0.2998	3.45	996.05	29.71
288.15 K, x1 = 0.4001	2.35	1028.84	51.08
288.15 K, x1 = 0.4997	1.21	1052.44	81.84
288.15 K, x1 = 0.5998	0.95	1067.26	120.8
288.15 K, x1 = 0.7002	0.685	1077.84	166.5
288.15 K, x1 = 0.7999	0.496	1085.72	215
288.15 K, x1 = 0.8999	0.378	1093.78	264.8
288.15 K, x1 = 1	0.255	1099.81	316.5
293.15 K, x1 = 0.1002	5.5	880.24	5.454
293.15 K, x1 = 0.2002	4.67	945.16	11.9
293.15 K, x1 = 0.2998	3.84	992.52	22.12
293.15 K, x1 = 0.4001	2.64	1025.75	37.64
293.15 K, x1 = 0.4997	1.46	1049.28	58.62
293.15 K, x1 = 0.5998	1.16	1064.44	85.72
293.15 K, x1 = 0.7002	0.883	1075.11	117.1
293.15 K, x1 = 0.7999	0.639	1083.11	150.3
293.15 K, x1 = 0.8999	0.478	1090.97	183.5
293.15 K, x1 = 1	0.361	1096.75	215.8
298.15 K, x1 = 0.1002	5.83	876.09	3.864
298.15 K, x1 = 0.2002	5.05	941.45	8.717
298.15 K, x1 = 0.2998	4.27	988.89	16.33
298.15 K, x1 = 0.4001	2.98	1022.71	27.66
298.15 K, x1 = 0.4997	1.72	1046.39	42.09
298.15 K, x1 = 0.5998	1.4	1061.68	60.63
298.15 K, x1 = 0.7002	1.08	1072.2	82.01
298.15 K, x1 = 0.7999	0.789	1080.57	105
298.15 K, x1 = 0.8999	0.589	1088.08	128.8
298.15 K, x1 = 1	0.459	1093.67	151.9
303.15 K, x1 = 0.1002	6.16	871.55	2.697
303.15 K, x1 = 0.2002	5.43	937.88	6.468
303.15 K, x1 = 0.2998	4.71	985.24	12.26
303.15 K, x1 = 0.4001	3.36	1019.65	20.36
303.15 K, x1 = 0.4997	2.01	1043.41	30.78
303.15 K, x1 = 0.5998	1.67	1058.77	44.13
303.15 K, x1 = 0.7002	1.32	1069.41	59.49
303.15 K, x1 = 0.7999	0.973	1077.79	76.35
303.15 K, x1 = 0.8999	0.72	1085.29	93.37
303.15 K, x1 = 1	0.583	1090.61	110.1
308.15 K, x1 = 0.1002	6.49	867.37	1.998
308.15 K, x1 = 0.2002	5.83	934.26	4.904
308.15 K, x1 = 0.2998	5.16	981.65	9.381
308.15 K, x1 = 0.4001	3.77	1016.47	15.33
308.15 K, x1 = 0.4997	2.35	1040.37	22.87
308.15 K, x1 = 0.5998	1.98	1055.91	32.68
308.15 K, x1 = 0.7002	1.59	1066.65	43.59
308.15 K, x1 = 0.7999	1.18	1075.33	55.98
308.15 K, x1 = 0.8999	0.874	1082.59	69.61
308.15 K, x1 = 1	0.733	1087.57	83.42
313.15 K, x1 = 0.1002	6.81	862.96	1.461
313.15 K, x1 = 0.2002	6.22	930.69	3.715
313.15 K, x1 = 0.2998	5.62	978.11	7.289
313.15 K, x1 = 0.4001	4.18	1013.36	11.81
313.15 K, x1 = 0.4997	2.71	1037.38	17.46
313.15 K, x1 = 0.5998	2.31	1053.06	24.53
313.15 K, x1 = 0.7002	1.88	1063.86	32.94
313.15 K, x1 = 0.7999	1.42	1072.65	42.28
313.15 K, x1 = 0.8999	1.06	1079.86	53.18
313.15 K, x1 = 1	0.905	1084.55	64.78
318.15 K, x1 = 0.1002	7.13	858.59	1.077
318.15 K, x1 = 0.2002	6.61	927.1	2.907
318.15 K, x1 = 0.2998	6.1	974.43	5.635
318.15 K, x1 = 0.4001	4.61	1010.2	9.215
318.15 K, x1 = 0.4997	3.11	1034.36	13.52
318.15 K, x1 = 0.5998	2.67	1050.24	18.99
318.15 K, x1 = 0.7002	2.22	1060.96	25.5
318.15 K, x1 = 0.7999	1.69	1069.97	32.82
318.15 K, x1 = 0.8999	1.26	1077.03	41.2
318.15 K, x1 = 1	1.1	1081.54	50.96
323.15 K, x1 = 0.1002	7.45	854.24	0.775
323.15 K, x1 = 0.2002	7.01	923.56	2.285
323.15 K, x1 = 0.2998	6.58	970.89	4.456
323.15 K, x1 = 0.4001	5.05	1006.99	7.216
323.15 K, x1 = 0.4997	3.52	1031.23	10.53
323.15 K, x1 = 0.5998	3.08	1047.39	14.68
323.15 K, x1 = 0.7002	2.6	1060	19.99
323.15 K, x1 = 0.7999	2	1070	25.88
323.15 K, x1 = 0.8999	1.5	1074.33	33.37
323.15 K, x1 = 1	1.33	1078.54	41.55
